Legend:
Type in all cases: cell-based
MCF7 cells = experiment: Transcriptomic analysis of HH33-treated MCF7 cells
Experimental: RNA extraction was carried out followed by cDNA synthesis using SuperScript VILO cDNA Synthesis kit (Invitrogen, Waltham, MA, USA) and amplification using Ion AmpliSeq gene expression core panel primers. The prepared library was purified using Agencourt AMPure XP beads (Beckman Coulter, California, USA) and quantified using Ion Library TaqMan™ Quantitation Kit (Applied Biosystems, Waltham, MA, USA). The libraries were further diluted to […] and pooled equally with four individual samples per pool. The pooled libraries were amplified using emulsion PCR on Ion OneTouch™ 2 instrument (OT2) and the enrichment was performed on Ion OneTouch™ ES following the manufacturer's instruction. Thus, prepared template libraries were then sequenced with Ion S5 XL Semiconductor sequencer using the Ion 540™ Chip. RNA-seq data were analyzed using Ion Torrent Software Suite version 5.4 and the alignment was carried out using modifications of the Torrent Mapping Alignment Program (TMAP) optimizing it for aligning the raw sequencing reads against reference sequence derived from hgl9 (GRCh37) assembly. The specificity and sensitivity was maintained by implementing a two-stage mapping approach by employing BWA-short, BWA-long, SSAHA [31], Super-maximal Exact Matching and Smith Waterman algorithm for optimal mapping. Raw read counts of the targeted genes were performed using Samtools (Samtools view —c -F 4-L bed_file bam_file) and the number of expressed transcripts was confirmed after Fragments Per Kilobase Million (FPKM) normalisation. Differentially expressed gene (DEG) analysis was performed using a script written in R programming language (version 3.6.3) with function calls to DESeq2 package from Bioconductor library sets. Raw read counts from RNASeq were normalized using quantile normalization. All counts ranked “0” were excluded. Differentially expressed genes between the two set of cell lines [HH33-treated (n=3), and untreated (n=3)] were assessed using 2 tailed t-test. Differentially expressed genes with p-value of <0.05, adjusted p-value<0.8 and 5-fold difference were included for pathway analysis using Metascape.

HCT116 = experiment: Cell cycle analysis by flow cytometry, HCT116; details: 1 μM, peak at 8 hours, Control 27.4%
Experimental: (§1) The effect of the HH32 and HH33 compounds on the distribution of cell cycle at different time points (2, 4, 8, 24, 48, and 72 hours) was analyzed using flow cytometry. Briefly, the cells were harvested and fixed in 70% ethanol for 24 hours at −20° C. The fixed cells were treated with RNAase […] (Sigma Aldrich, Missouri, USA) and stained with propidium iodide […] (Sigma Aldrich, Missouri, USA). The data were acquired using BD Accuri C6 flow cytometer (Becton Dickenson, San Jose, CA, USA) and analysis was done using Flow Jo software (Tree Star, Inc, Ashland, OR, USA).

HeLa cells = experiment: Cell cycle analysis by flow cytometry, HeLa; details: 1 μM, peak at 24 hours, Control 36.9%
Experimental: as §1

MCF7 = experiment: Cell cycle analysis by flow cytometry, MCF7; details: 1 μM, up to 72 hours, Control 11.3%
Experimental: as §1

A549 = experiment: Cell cycle analysis by flow cytometry, A549; details: 1 μM, up to 72 hours, Control 8.5%
Experimental: as §1

[1] = test system: CDK4 knockout HCT116 cells; experiment: Sensitivity and cell cycle of CDK4 knockout versus wild-type HCT116
Experimental: CRISPR-Cas9 was employed to stablish HCT116 CDK4 KO cells. Ribonucleotide protein (RNP) delivery system for CRISPR technique was utilized. All the reagents were purchased for Thermoscientific company, USA. gRNA was used to target CDK4 genes. Lipofectamine™ CRISPRMAX™ Cas9 Transfection Reagent was used to transfect the cells with the gRNA and Cas9. The genomic cleavage efficiency was assessed by immunoblotting, while a scrambled gRNA, Trueguide gRNA Negative control, was used as a negative control in all the steps to ensure the specificity of the target. […] To generate isolated clones with complete knockout, the mixed pool of cells was diluted 1 cell/[…] liquid medium and then dispersed into 96 wells plate. The individual cells were left to form clones. […]
The cytotoxic effects of HH32 and HH33 compounds were evaluated at various concentrations ranging from 0.0001 to 100 μM by sulphrhodamine-B (SRB) assay as described previously. The anti-proliferative activity was expressed as growth inhibitory concentration (IC50) values, which were calculated by the sigmoidal dose-response curve fitting method using Graph pad prism 6 software (GraphPad Software, San Diego, CA, USA).
The effect of the HH32 and HH33 compounds on the distribution of cell cycle at different time points (2, 4, 8, 24, 48, and 72 hours) was analyzed using flow cytometry. […]

[2] = H33-treated vs DMSO-treated, DNA repair pathways

COC(=O)c1cc(NC2=NC(=O)C(=Cc3ccc(N(C)C)cc3)S2)ccc1OC(C)=O [HH33, Methyl 2-acetoxy-5-[(5-(4-dimethylaminobenzylidene)-4 (H)-oxo-1,3-thiazol-2-yl)-amino]benzoate]
Fold change (H_Mean/D_Mean) CDC45 (MCF7 cells; [2]): 0.1426 | Fold change (H_Mean/D_Mean) CHAF1B (MCF7 cells; [2]): 0.5251 | Fold change (H_Mean/D_Mean) DDX11 (MCF7 cells; [2]): 0.4961 | Fold change (H_Mean/D_Mean) ESCO2 (MCF7 cells; [2]): 0.2719 | Fold change (H_Mean/D_Mean) GTF2H2C (MCF7 cells; [2]): 0.2907 | Fold change (H_Mean/D_Mean) MCM6 (MCF7 cells; [2]): 0.4195 | Fold change (H_Mean/D_Mean) MMS22L (MCF7 cells; [2]): 0.2144 | Fold change (H_Mean/D_Mean) PIAS4 (MCF7 cells; [2]): 0.6961 | Fold change (H_Mean/D_Mean) POLA1 (MCF7 cells; [2]): 0.196 | Fold change (H_Mean/D_Mean) RAD17 (MCF7 cells; [2]): 0.3003 | Fold change (H_Mean/D_Mean) RAD51 (MCF7 cells; [2]): 0.2505 | Fold change (H_Mean/D_Mean) RAD51AP1 (MCF7 cells; [2]): 0.2877 | Fold change (H_Mean/D_Mean) RECQL (MCF7 cells; [2]): 0.212 | Fold change (H_Mean/D_Mean) RIF1 (MCF7 cells; [2]): 0.3166 | Fold change (H_Mean/D_Mean) RNF111 (MCF7 cells; [2]): 0.5331 | Fold change (H_Mean/D_Mean) RNF168 (MCF7 cells; [2]): 0.2605 | Fold change (H_Mean/D_Mean) TRIP13 (MCF7 cells; [2]): 0.4436 | Fold change (H_Mean/D_Mean) UBE2N (MCF7 cells; [2]): 0.3688 | Fold change (H_Mean/D_Mean) UBE2W (MCF7 cells; [2]): 0.224 | Fold change (H_Mean/D_Mean) ZSWIM7 (MCF7 cells; [2]): 0.3144 | pathways related to DNA repair and cell cycle progression (MCF7 cells; hypergeometric test): down-regulation | G2/M phase accumulation (HCT116): 77.4% | G2/M phase accumulation (HeLa cells): 93.9% | G2/M cell cycle arrest (MCF7): 57.7% | G2/M cell cycle arrest (A549): 45.1% | sensitivity and cell cycle distribution, wild-type versus CDK4 knockout cells [1]: no difference

Source: patent US20250002467A1, “DESIGN, SYNTHESIS AND MECHANISMS OF ANTICANCER ACTIVITY OF NEW ACETYLATED 5-AMINOSALICYLATE-THIAZOLINONE HYBRID DERIVATIVES” (University of Sharjah, priority 2023, published 2025)
